Assay results from ChEMBL document CHEMBL3045761, “One pot synthesis of some novel coumarins containing 5-(substituted-2-hydroxybenzoyl) pyridine as a new class of antimicrobial and antituberculosis agents” (2013).
In brackets after ≈: the same amount, converted by molar mass.

What was measured:
Format in all cases: functional
Bacillus subtilis = assay: Antibacterial activity against Bacillus subtilis MTCC 441 after overnight incubation by broth microdilution method
Salmonella typhi = assay: Antibacterial activity against Salmonella enterica subsp. enterica serovar Typhi MTCC 98 after overnight incubation by broth microdilution method
Staphylococcus aureus = assay: Antibacterial activity against Staphylococcus aureus MTCC 96 after overnight incubation by broth microdilution method
Aspergillus niger = assay: Antifungal activity against Aspergillus niger MTCC 282 after overnight incubation by broth microdilution method
Escherichia coli = assay: Antibacterial activity against Escherichia coli MTCC 443 after overnight incubation by broth microdilution method
Candida albicans = assay: Antifungal activity against Candida albicans MTCC 227 after overnight incubation by broth microdilution method
[1] = tested on: Mycobacterium tuberculosis; assay: Antitubercular activity against Mycobacterium tuberculosis H37Rv after 21 days by Lowenstein-Jensen method; details: 504 h

Row | Compound | MIC99 (Bacillus subtilis) [µg/mL] | MIC99 (Salmonella typhi) [µg/mL] | MIC99 (Staphylococcus aureus) [µg/mL] | MIC99 (Aspergillus niger) [µg/mL] | MIC99 (Escherichia coli) [µg/mL] | MIC99 (Candida albicans) [µg/mL] | MIC90 [1] [µg/mL]
1 | COc1cccc2cc(-c3ccc(C(=O)c4cc(C)ccc4O)cn3)c(=O)oc12 | 250 (≈ 645 µM) | 100 (≈ 258 µM) | 250 (≈ 645 µM) | 500 (≈ 1290 µM) | 100 (≈ 258 µM) | 1000 (≈ 2580 µM) | 62.5 (≈ 161 µM)
2 | O=C(c1ccc(-c2cc3cc(Br)ccc3oc2=O)nc1)c1ccccc1O | 100 (≈ 237 µM) | 125 (≈ 296 µM) | 200 (≈ 474 µM) | > 1000 | 50 (≈ 118 µM) | 200 (≈ 474 µM) | 250 (≈ 592 µM)
3 | Cc1ccc(O)c(C(=O)c2ccc(-c3cc4c(ccc5ccccc54)oc3=O)nc2)c1 | 100 (≈ 245 µM) | 250 (≈ 614 µM) | 125 (≈ 307 µM) | 1000 (≈ 2450 µM) | 200 (≈ 491 µM) | 500 (≈ 1230 µM) | 1000 (≈ 2450 µM)
4 | COc1cccc2cc(-c3ccc(C(=O)c4ccccc4O)cn3)c(=O)oc12 | 200 (≈ 536 µM) | 250 (≈ 670 µM) | 500 (≈ 1340 µM) | > 1000 | 200 (≈ 536 µM) | 1000 (≈ 2680 µM) | 500 (≈ 1340 µM)
5 | O=C(c1ccc(-c2cc3cc(Br)ccc3oc2=O)nc1)c1cc(Cl)ccc1O | 100 (≈ 219 µM) | 100 (≈ 219 µM) | 62.5 (≈ 137 µM) | > 1000 | 62.5 (≈ 137 µM) | 100 (≈ 219 µM) | 1000 (≈ 2190 µM)
6 | Cc1ccc(O)c(C(=O)c2ccc(-c3cc4cc(Br)ccc4oc3=O)nc2)c1 | 500 (≈ 1150 µM) | 100 (≈ 229 µM) | 500 (≈ 1150 µM) | 500 (≈ 1150 µM) | 100 (≈ 229 µM) | 500 (≈ 1150 µM) | 100 (≈ 229 µM)
7 | COC1=CC(=O)C[C@@H](C)[C@]12Oc1c(Cl)c(OC)cc(OC)c1C2=O [GRISEOFULVIN] | – | – | – | 100 (≈ 283 µM) | – | 500 (≈ 1420 µM) | –
8 | NYSTATIN | – | – | – | 100 | – | 100 | –
9 | O=C(c1ccc(-c2cc3c(ccc4ccccc43)oc2=O)nc1)c1cc(Cl)ccc1O | 125 (≈ 292 µM) | 250 (≈ 584 µM) | 100 (≈ 234 µM) | 100 (≈ 234 µM) | 250 (≈ 584 µM) | 1000 (≈ 2340 µM) | 500 (≈ 1170 µM)
10 | COc1cccc2cc(-c3ccc(C(=O)c4cc(Cl)ccc4O)cn3)c(=O)oc12 | 200 (≈ 490 µM) | 200 (≈ 490 µM) | 200 (≈ 490 µM) | > 1000 | 125 (≈ 307 µM) | > 1000 | 500 (≈ 1230 µM)
11 | Cc1ccc(O)c(C(=O)c2ccc(-c3cc4ccccc4oc3=O)nc2)c1 | 200 (≈ 560 µM) | 200 (≈ 560 µM) | 100 (≈ 280 µM) | 1000 (≈ 2800 µM) | 250 (≈ 700 µM) | 250 (≈ 700 µM) | 100 (≈ 280 µM)
12 | O=C(c1ccc(-c2cc3c(ccc4ccccc43)oc2=O)nc1)c1ccccc1O | 100 (≈ 254 µM) | 250 (≈ 635 µM) | 100 (≈ 254 µM) | 500 (≈ 1270 µM) | 200 (≈ 508 µM) | 250 (≈ 635 µM) | 250 (≈ 635 µM)
13 | O=C(c1ccc(-c2cc3ccccc3oc2=O)nc1)c1ccccc1O | 250 (≈ 728 µM) | 125 (≈ 364 µM) | 200 (≈ 583 µM) | 1000 (≈ 2910 µM) | 100 (≈ 291 µM) | 500 (≈ 1460 µM) | 1000 (≈ 2910 µM)
14 | O=C(c1ccc(-c2cc3ccccc3oc2=O)nc1)c1cc(Cl)ccc1O | 200 (≈ 529 µM) | 250 (≈ 662 µM) | 250 (≈ 662 µM) | > 1000 | 250 (≈ 662 µM) | 500 (≈ 1320 µM) | 250 (≈ 662 µM)
15 | CC1(C)S[C@@H]2[C@H](NC(=O)[C@H](N)c3ccccc3)C(=O)N2[C@H]1C(=O)O [AMPICILLIN] | 250 (≈ 715 µM) | 100 (≈ 286 µM) | 250 (≈ 715 µM) | – | 100 (≈ 286 µM) | – | –
